Entries after “also recorded” stand apart in the source; their conditions may differ. Peptide text beside a SMILES is read from it.
Key:
human α-thrombin = molecular target: T1, human α-thrombin (Homo sapiens, UniProt P00734); test: Thrombin amidolytic activity assay with chromogenic substrate S2238; type: biochemical; settings: for Hill slope of thrombin amidolytic inhibition: 0 min pre-incubation where stated
T1 construct: residues in the termini of the light chain; purchased Chemo-Sero-Therapeutic Research Institute (Kaketsuken, Japan), as a gift, not bought
Method: Thrombin amidolytic activity assays for all peptides were performed in 96-wells microtiter plates in 50 mM Tris buffer (pH 7.4) containing 100 mM NaCl and 1 mg/ml bovine serum albumin. […] The rates of formation of p-nitroaniline were followed by measuring the absorbance at 405 nm for 10 min with a Tecan InfinitePro M200 microplate reader from Tecan (Männedorf, Switzerland). Dose-response curves were fitted using the GraphPad Prizm software (San Diego, Calif., USA) to calculate IC50 values and Hill coefficients. To measure the inhibitory constants, different concentrations of S2238 were used and the residual velocities were determined using the Morrison's tight binding equation. Inhibition of thrombin fibrinogenolytic activity of peptides were tested by measuring absorbance at 650 nm using a Sunrise microplate reader from Tecan (Männedorf, Switzerland) as described previously [Koh C Y, et al., J Biol Chem 282: 29101-13 (2007)]. The selectivity of avathrin was examined against 13 serine proteases (FIG. 5). Effects of avathrin on the amidolytic activities of these serine proteases were determined using respective chromogenic substrates. […] Avathrin (150 μM) was incubated with thrombin (5 μM), in 50 mM Tris buffer (pH 7.4) containing 150 mM NaCl and 1 mg/ml BSA. After different incubation times, reactions were quenched with 1% TFA (pH 1.8) and loaded onto a Jupiter Proteo column (4 μm, 90 Å, 100×1.0 mm) attached to a Dionex nano-HPLC system from Thermo Fisher Scientific (Waltham, Mass., USA) and eluted using an acetonitrile gradient with 0.05% TFA and 99.95% MilliQ water as eluent A and 0.05% TFA, 19.95% MilliQ water and 80% ACN as eluent B. Masses of all peaks were measured to identify cleavage products, which were subsequently quantified by integrating the peaks and calculating the area under the curves. To measure the effect of different pre-incubation times on the thrombin inhibitory activity, amidolytic assays were performed for various incubation times (up to 36 h).

thrombin = molecular target: T2, thrombin (Homo sapiens, UniProt P00734); test: Inhibition of thrombin fibrinogenolytic activity (fibrinogen clotting time); type: biochemical
T2 construct: residues in the termini of the light chain; and in the autolysis loop and C-terminus of the heavy chain; purchased Chemo-Sero-Therapeutic Research Institute (Kaketsuken, Japan), as a gift, not bought
Method: Thrombin amidolytic activity assays for all peptides were performed in 96-wells microtiter plates in 50 mM Tris buffer (pH 7.4) containing 100 mM NaCl and 1 mg/ml bovine serum albumin. Typically, 100 μl of peptide and 100 μl of thrombin were pre-incubated for different durations before 100 μl of S2238 was added to the reaction wells. The rates of formation of p-nitroaniline were followed by measuring the absorbance at 405 nm for 10 min with a Tecan InfinitePro M200 microplate reader from Tecan (Männedorf, Switzerland). Dose-response curves were fitted using the GraphPad Prizm software (San Diego, Calif., USA) to calculate IC50 values and Hill coefficients. To measure the inhibitory constants, different concentrations of S2238 were used and the residual velocities were determined using the Morrison's tight binding equation. Inhibition of thrombin fibrinogenolytic activity of peptides were tested by measuring absorbance at 650 nm using a Sunrise microplate reader from Tecan (Männedorf, Switzerland) as described previously [Koh C Y, et al., J Biol Chem 282: 29101-13 (2007)]. The selectivity of avathrin was examined against 13 serine proteases (FIG. 5). Effects of avathrin on the amidolytic activities of these serine proteases were determined using respective chromogenic substrates. Cleavage of avathrin by thrombin. Avathrin (150 μM) was incubated with thrombin (5 μM), in 50 mM Tris buffer (pH 7.4) containing 150 mM NaCl and 1 mg/ml BSA. After different incubation times, reactions were quenched with 1% TFA (pH 1.8) and loaded onto a Jupiter Proteo column (4 μm, 90 Å, 100×1.0 mm) attached to a Dionex nano-HPLC system from Thermo Fisher Scientific (Waltham, Mass., USA) and eluted using an acetonitrile gradient with 0.05% TFA and 99.95% MilliQ water as eluent A and 0.05% TFA, 19.95% MilliQ water and 80% ACN as eluent B. Masses of all peaks were measured to identify cleavage products, which were subsequently quantified by integrating the peaks and calculating the area under the curves. To measure the effect of different pre-incubation times on the thrombin inhibitory activity, amidolytic assays were performed for various incubation times (up to 36 h).

[1] = test system: platelets (ADP-induced platelet aggregation); test: Preservation of platelet function in blood tubes (Multiplate, ADP-induced platelet aggregation); type: cell-based, human (healthy volunteers); settings: control tubes (0.109M citrate; >15 μg/ml hirudin), ADP agonist
Method: Individual peptides are dissolved in phosphate buffered saline to prepare 10× peptide solutions (ie. concentrations of peptides are 10 times higher than the final concentrations at which they are to be tested). 0.3 ml of the 10× peptide solutions are placed in blood tubes without any additives. Blood was drawn from healthy volunteers using syringes and immediately transferred to a 50 ml conical centrifuge tube (Falcon tube) before pipetting 2.7 ml of the blood into blood tubes with peptide solutions. Final concentrations of peptides are as stated in Table 5 and 6.
Blood tubes with various peptides at different concentrations were left standing at room temperature until tested at designated times. At different time points, tubes were inverted several times and blood samples were taken out for platelet aggregation tests using a Multiplate® Platelet aggregometer with adenosine diphosphate (ADP) as agonist according to manufacturer's recommended protocols.

[2] = IC50 of inhibition of thrombin amidolytic activity, thrombin 0.81 nM, S2238 100 μM, without pre-incubation (0 min) where stated
[3] = inhibitory constant Ki for thrombin, thrombin 0.81 nM, various S2238 concentrations

## GLGGDFEEIPSDEIIE [GL16]
Human α-thrombin; 3-300 μM
  effect on thrombin amidolytic activity: did not inhibit amidolytic activity even at 300 μM; also recorded: unable to inhibit thrombin amidolytic activity
Human α-thrombin; Table 2
  Hill Slope: N. I.
  IC50(nM): N. I.*
  Ki(nM): N. I.
Human α-thrombin; high concentrations, up to 300 μM
  activation of thrombin amidolytic activity: 5-10%
thrombin
  effect on fibrinogen clotting time / thrombin fibrinogenolytic activity: inhibited the fibrinogenolytic activity; also recorded: prolonged fibrinogen clotting times in a dose dependent manner

## hirudin [reference compound]
[1]; 1.5 h
  Multiplate AUC (U): 69.5 U
[1]; 4 h
  Multiplate AUC (U): 50.2 U
[1]; 24 h
  Multiplate AUC (U): 36.2 U
[1]; 48 h
  Multiplate AUC (U): 29.1 U
[1]; 72 h
  Multiplate AUC (U): 26.9 U

## CC[C@H](C)[C@H](NC(=O)[C@H](CCCCN)NC(=O)[C@@H]1CCCN1C(=O)[C@@H](NC(=O)[C@H](C)NC(=O)[C@@H](NC(=O)[C@@H](N)CCC(N)=O)[C@@H](C)O)C(C)C)C(=O)N[C@@H](CO)C(=O)N[C@@H](CCCCN)C(=O)N[C@@H](CCC(N)=O)C(=O)NCC(=O)N[C@@H](CC(C)C)C(=O)NCC(=O)NCC(=O)N[C@@H](CC(=O)O)C(=O)N[C@@H](Cc1ccccc1)C(=O)N[C@@H](CCC(=O)O)C(=O)N[C@@H](CCC(=O)O)C(=O)N[C@H](C(=O)N1CCC[C@H]1C(=O)N[C@@H](CO)C(=O)N[C@@H](CC(=O)O)C(=O)N[C@@H](CCC(=O)O)C(=O)N[C@H](C(=O)N[C@H](C(=O)N[C@@H](CCC(=O)O)C(=O)O)[C@@H](C)CC)[C@@H](C)CC)[C@@H](C)CC [QT26] (H-QTAVPKISKQGLGGDFEEIPSDEIIE-OH; N-terminus and C-terminus assumed)
Human α-thrombin
  Hill slope of thrombin amidolytic inhibition: 0.88±0.03
Human α-thrombin; 10 min pre-incubation
  Hill slope of thrombin amidolytic inhibition, 10 min pre-incubation: 0.92±0.03
Human α-thrombin; [2]
  IC50: 8.94 ± 0.64 nM
Human α-thrombin; Table 2
  Hill Slope: 0.88 ± 0.03
Human α-thrombin; [3]
  Ki: 0.7603 ± 0.00091 nM
thrombin
  effect on fibrinogen clotting time / thrombin fibrinogenolytic activity: inhibited

## O=C(O)CC(O)(CC(=O)O)C(=O)O [citrate, reference compound]
[1]; 1.5 h
  Multiplate AUC (U): 37 U
[1]; 4 h
  Multiplate AUC (U): 32.2 U
[1]; 24 h
  Multiplate AUC (U): 12.9 U
[1]; 48 h
  Multiplate AUC (U): 1.4 U
[1]; 72 h
  Multiplate AUC (U): 0.7 U

## CC[C@H](C)[C@H](NC(=O)[C@H](C)NC(=O)[C@H](CC(=O)O)NC(=O)[C@H](CC(=O)O)NC(=O)[C@@H]1CCCN1C(=O)[C@@H](NC(=O)[C@H](CCC(=O)O)NC(=O)[C@H](CCC(=O)O)NC(=O)[C@H](Cc1ccccc1)NC(=O)[C@H](CC(=O)O)NC(=O)CNC(=O)[C@@H]1CCCN1C(=O)[C@@H]1CCCN1C(=O)[C@H](C)NC(=O)[C@@H](NC(=O)[C@H](CO)NC(=O)[C@H](Cc1ccc(O)cc1)NC(=O)[C@H](CCSC)NC(=O)[C@H](CCCCN)NC(=O)[C@@H]1CCCN1C(=O)[C@@H](NC(=O)[C@H](C)NC(=O)[C@@H](NC(=O)[C@H](CC(=O)O)NC(=O)CNC(=O)[C@H](CCC(N)=O)NC(=O)[C@H](CC(=O)O)NC(=O)[C@@H](N)CO)C(C)C)[C@@H](C)CC)[C@@H](C)O)[C@@H](C)CC)C(=O)N[C@@H](CCC(=O)O)C(=O)N[C@@H](CCC(=O)O)C(=O)O [UV003] (H-SDQGDVAIPKMYSTAPPGDFEEIPDDAIEE-OH)
Human α-thrombin; [2]
  IC50: 0.6 ± 0.2 nM
Human α-thrombin; [3]
  Ki: 0.00421 ± 0.00096 nM

## CC[C@H](C)[C@H](NC(=O)[C@H](CC(=O)O)NC(=O)[C@H](CCC(=O)O)NC(=O)[C@H](Cc1ccccc1)NC(=O)[C@H](CC(=O)O)NC(=O)CNC(=O)CNC(=O)[C@H](CC(C)C)NC(=O)CNC(=O)[C@H](CCCCN)NC(=O)[C@H](CCCNC(=N)N)NC(=O)[C@H](CO)NC(=O)[C@H](CCSC)NC(=O)[C@H](CCCCN)NC(=O)[C@@H]1CCCN1C(=O)[C@@H](NC(=O)[C@H](C)NC(=O)[C@@H](NC(=O)[C@H](Cc1c[nH]cn1)NC(=O)[C@H](CC(=O)O)NC(=O)[C@H](CCC(=O)O)NC(=O)CNC(=O)[C@@H](N)CO)[C@@H](C)O)C(C)C)C(=O)N1CCC[C@H]1C(=O)N1CCC[C@H]1C(=O)N[C@@H](CCC(=O)O)C(=O)N[C@@H](C)C(=O)N[C@@H](Cc1ccc(O)cc1)C(=O)N[C@@H](CCC(=O)O)C(=O)N[C@@H](CCCNC(=N)N)C(=O)N[C@@H](C)C(=O)N[C@@H](CC(C)C)C(=O)N[C@@H](CCC(=O)O)C(=O)N[C@@H](C)C(=O)N[C@@H](CCCNC(=N)N)C(=O)O [Amblyomma americanum] (H-SGEDHTAVPKMSRKGLGGDFEDIPPEAYERALEAR-OH)
Human α-thrombin; Affinity (nM), Table 4, Ki values
  Ki: 1.63 ± 0.61 nM
Human α-thrombin; IC50 (nM), Table 4, members of variegin family
  IC50: 14.29 ± 0.12 nM

## CC[C@H](C)[C@H](NC(=O)[C@H](CCCCN)NC(=O)[C@@H]1CCCN1C(=O)[C@@H](NC(=O)[C@H](C)NC(=O)[C@@H](NC(=O)[C@H](CCC(N)=O)NC(=O)[C@H](Cc1c[nH]cn1)NC(=O)CNC(=O)CNC(=O)[C@@H](N)CO)[C@@H](C)O)C(C)C)C(=O)N[C@@H](CO)C(=O)N[C@@H](CCCCN)C(=O)N[C@@H](CCC(N)=O)C(=O)NCC(=O)N1CCC[C@H]1C(=O)N1CCC[C@H]1C(=O)NCC(=O)N[C@@H](CC(=O)O)C(=O)N[C@@H](Cc1ccccc1)C(=O)N[C@@H](CCC(=O)O)C(=O)N[C@@H](CCC(=O)O)C(=O)N[C@H](C(=O)N1CCC[C@H]1C(=O)N[C@@H](CO)C(=O)N[C@@H](CC(=O)O)C(=O)N[C@@H](CCC(=O)O)C(=O)N[C@H](C(=O)N[C@H](C(=O)N[C@@H](CCC(=O)O)C(=O)O)[C@@H](C)CC)[C@@H](C)CC)[C@@H](C)CC [L16P, G17P] (H-SGGHQTAVPKISKQGPPGDFEEIPSDEIIE-OH)
Human α-thrombin
  fold drop in potency compared with avathrin: > 25 fold
  Hill slope of thrombin amidolytic inhibition: 0.54±0.02
Human α-thrombin; [2]
  IC50: 181 ± 3.76 nM
Human α-thrombin; Table 2
  Hill Slope: 0.54 ± 0.02

Reference: patent US10906946B2, “Thrombin inhibitors” (priority 2015, dated 2021)
